According to patent US8569342B2, “Diastereomers of 4-aryloxy-3-hydroxypiperidines” (Brentwood Equities, Ltd., priority 2003, dated 2013):
Like-named read-outs stand apart in the source and are kept apart here.

Assays:
5-HT3 = 5-HT3 (Homo sapiens, UniProt P46098); assay: 5-HT3 receptor binding assay; conditions: for inhibition at 0.1 µM: 100 nM compound, read-out: % inhibition of control specific at 100 nM conc.
5-HT7 = target: T1, 5-HT7 (Homo sapiens, UniProt P34969); assay: 5-HT7 receptor binding assay; conditions: for inhibition at 0.1 µM: 100 nM compound, read-out: % inhibition of control specific at 100 nM conc.
T1 construct: expressed in transfected cells; host or cells: CHO cells
T1 sequence (P34969 whole entry): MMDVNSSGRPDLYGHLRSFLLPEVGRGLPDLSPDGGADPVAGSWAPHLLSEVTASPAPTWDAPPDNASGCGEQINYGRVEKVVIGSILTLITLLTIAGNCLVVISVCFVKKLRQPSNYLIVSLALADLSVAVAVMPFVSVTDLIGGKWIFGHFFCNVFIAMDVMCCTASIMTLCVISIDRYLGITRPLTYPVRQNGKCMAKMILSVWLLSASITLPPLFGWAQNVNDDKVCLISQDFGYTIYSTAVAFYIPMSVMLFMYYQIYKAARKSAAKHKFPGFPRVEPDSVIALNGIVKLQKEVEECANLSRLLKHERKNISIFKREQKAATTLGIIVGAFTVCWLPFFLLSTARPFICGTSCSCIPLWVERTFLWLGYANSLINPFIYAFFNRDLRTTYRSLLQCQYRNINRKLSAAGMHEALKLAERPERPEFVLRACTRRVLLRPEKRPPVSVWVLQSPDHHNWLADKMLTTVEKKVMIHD

human 5-HT2B receptor = human 5-HT2B receptor (Homo sapiens, UniProt P41595); assay: 5-HT2B receptor binding assay; conditions: for inhibition at 0.1 µM: 100 nM compound, 1.2 nM [3H]-LSD, 60 minutes at 22° C., CHO cells, read-out: % inhibition of control specific at 100 nM conc.
human 5-HT2B receptor, sequence (P41595 whole entry): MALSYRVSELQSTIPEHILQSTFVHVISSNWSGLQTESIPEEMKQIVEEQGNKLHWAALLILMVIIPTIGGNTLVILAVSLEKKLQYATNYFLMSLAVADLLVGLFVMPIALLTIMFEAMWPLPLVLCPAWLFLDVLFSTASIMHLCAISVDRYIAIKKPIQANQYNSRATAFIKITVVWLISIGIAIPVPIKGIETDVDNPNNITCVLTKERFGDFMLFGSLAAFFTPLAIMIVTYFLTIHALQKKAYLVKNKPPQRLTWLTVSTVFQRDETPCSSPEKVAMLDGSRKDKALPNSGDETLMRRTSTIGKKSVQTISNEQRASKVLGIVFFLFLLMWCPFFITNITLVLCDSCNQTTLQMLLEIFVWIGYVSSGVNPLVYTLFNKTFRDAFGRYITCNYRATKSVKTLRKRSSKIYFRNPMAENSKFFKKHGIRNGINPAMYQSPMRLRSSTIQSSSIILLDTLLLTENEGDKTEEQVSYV
Protocol: (§1) 5-HT receptor binding assays were performed according to the method well known in the art. See for example Mulerhorn et al. J. Biol. Chem. 269 (1994) 12954-12962, Bonhaus et al. (1995) et al. J. Biol. Chem. 269 (1994) 12954-12962 herein incorporated by reference in its entirety. See also U.S. Pat. Nos. 5,126,363; 5,688,807; 5,786,157; and 5,869,691 herein incorporated by reference in their entirety.
(§2) Briefly, CHO cells expressing human 5-HT receptor subtypes, or membranes prepared therefrom, were incubated with a specific radioactive ligand for 60 minutes at 22° C. (0.5 nM of [^3H]-8-OH-DPAT for 5-HT1A receptors, 1.2 nM of [^3H]-LSD for 5-HT2B receptors). Incubations were performed in the presence or absence of one of the following diastereomers: 10 μM 8-OH-DPAT; 100 nM (3S,4R)-4-(2,3-dimethylphenyl)-3-hydroxypiperidine; 100 nM (3R,4S)-4-(2,3-dimethylphenyl)-3-hydroxypiperidine; 100 nM (3R,4R)-4-(2,3-dimethylphenyl)-3-hydroxypiperidine; 100 nM (3S,4S)-4-(2,3-dimethylphenyl)-3-hydroxypiperidine. Following incubation the cells or membranes were washed recovered and the radioactivity content of the filter used to determine specific receptor binding and inhibition by the essential pure diastereomers.

5-HT2c = 5-HT2c (Homo sapiens, UniProt P28335); assay: 5-HT2c receptor binding assay; conditions: for inhibition at 0.1 µM: 100 nM compound, read-out: % inhibition of control specific at 100 nM conc.
5-HT2c, sequence (P28335 33-458): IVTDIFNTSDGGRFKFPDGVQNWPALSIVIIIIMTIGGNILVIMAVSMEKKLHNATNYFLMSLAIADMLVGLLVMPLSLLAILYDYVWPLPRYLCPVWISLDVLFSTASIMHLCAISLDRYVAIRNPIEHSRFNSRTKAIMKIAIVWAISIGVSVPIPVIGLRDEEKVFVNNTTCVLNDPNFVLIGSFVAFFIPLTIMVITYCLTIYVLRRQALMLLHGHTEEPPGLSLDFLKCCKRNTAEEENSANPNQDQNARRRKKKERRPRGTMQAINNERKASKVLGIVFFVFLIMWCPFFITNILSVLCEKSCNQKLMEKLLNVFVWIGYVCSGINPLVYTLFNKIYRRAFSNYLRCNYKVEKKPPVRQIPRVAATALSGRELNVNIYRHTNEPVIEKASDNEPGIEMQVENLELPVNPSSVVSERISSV

NE uptake = NE uptake (Homo sapiens, UniProt P23975); assay: NE uptake binding assay; conditions: for inhibition at 0.1 µM: 100 nM compound, read-out: % inhibition of control specific at 100 nM conc.
NE uptake, sequence (P23975 whole entry): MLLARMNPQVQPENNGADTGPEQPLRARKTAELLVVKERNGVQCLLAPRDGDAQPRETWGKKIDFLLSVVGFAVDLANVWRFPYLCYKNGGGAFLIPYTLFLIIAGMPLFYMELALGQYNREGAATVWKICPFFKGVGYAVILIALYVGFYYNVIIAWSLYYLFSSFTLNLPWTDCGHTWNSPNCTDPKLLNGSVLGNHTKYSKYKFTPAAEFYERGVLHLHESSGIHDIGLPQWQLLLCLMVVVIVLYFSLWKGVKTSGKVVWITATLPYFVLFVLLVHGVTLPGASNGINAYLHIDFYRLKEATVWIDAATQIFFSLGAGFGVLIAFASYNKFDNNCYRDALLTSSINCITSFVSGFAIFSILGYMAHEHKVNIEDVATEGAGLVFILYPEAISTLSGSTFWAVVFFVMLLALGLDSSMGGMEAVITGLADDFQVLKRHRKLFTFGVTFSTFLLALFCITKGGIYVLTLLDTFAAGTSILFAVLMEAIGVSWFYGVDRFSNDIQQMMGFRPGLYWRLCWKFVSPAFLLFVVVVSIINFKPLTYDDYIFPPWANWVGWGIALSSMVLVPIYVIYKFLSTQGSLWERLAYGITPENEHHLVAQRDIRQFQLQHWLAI

5-HT4C = 5-HT4C receptor binding assay; design: species or system human; conditions: for % inhibition of control specific at 100 nM conc.: 100 nM compound
Protocol: as §1, §2

human 5-HT1A receptor = target: T2, human 5-HT1A receptor (Homo sapiens, UniProt P08908); assay: 5-HT1A receptor binding assay; conditions: for inhibition at 0.1 µM: 100 nM compound, 0.5 nM [3H]-8-OH-DPAT, 60 minutes at 22° C., CHO cells, read-out: % inhibition of control specific at 100 nM conc.
T2 construct: expressed in transfected cells; host or cells: CHO cells
T2 sequence (P08908 1-422): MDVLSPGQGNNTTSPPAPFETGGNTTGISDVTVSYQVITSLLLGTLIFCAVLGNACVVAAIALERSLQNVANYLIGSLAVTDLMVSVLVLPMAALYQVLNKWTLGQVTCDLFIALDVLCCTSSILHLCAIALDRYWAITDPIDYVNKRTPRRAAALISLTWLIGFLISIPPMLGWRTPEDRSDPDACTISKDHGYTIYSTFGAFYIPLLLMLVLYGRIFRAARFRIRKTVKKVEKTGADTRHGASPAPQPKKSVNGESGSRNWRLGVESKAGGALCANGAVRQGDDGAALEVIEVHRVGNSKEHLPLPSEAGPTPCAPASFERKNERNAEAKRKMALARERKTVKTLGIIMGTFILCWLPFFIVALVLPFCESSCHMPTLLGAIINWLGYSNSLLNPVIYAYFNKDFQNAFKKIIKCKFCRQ
Protocol: as §1, §2

opiate receptors = conditions: in vitro; Waldmeier; cited from earlier work
histamine H1 receptors = conditions: in vitro; Waldmeier; cited from earlier work
beta-noradrenoceptors = conditions: in vitro; Waldmeier; cited from earlier work
5-HT2 receptors [1] = conditions: Waldmeier, cited from earlier work
[2] = tested on: 5-HT reuptake in the brain; conditions: Delini-Stula et al.; cited from earlier work
doparine receptors = conditions: in vivo; Waldmeier; cited from earlier work
5-HT2 receptors [3] = conditions: in vivo; Waldmeier; cited from earlier work
alpha1-noradrenoceptors = conditions: in vitro; Waldmeier; cited from earlier work
GABAA receptors = conditions: in vitro; Waldmeier; cited from earlier work
[4] = tested on: muscarinic acetylcholine receptors; conditions: in vitro; Waldmeier; cited from earlier work
5-HT1 receptors = conditions: Waldmeier, cited from earlier work
alpha2-noradrenoceptors = conditions: in vitro; Waldmeier; cited from earlier work
benzodiazepine receptors = conditions: in vitro; Waldmeier; cited from earlier work
[5] = tested on: 5-HT uptake processes in the periphery (blood platelets); conditions: Delini-Stula et al.; cited from earlier work

5-HT3, sequence (P46098 24-478): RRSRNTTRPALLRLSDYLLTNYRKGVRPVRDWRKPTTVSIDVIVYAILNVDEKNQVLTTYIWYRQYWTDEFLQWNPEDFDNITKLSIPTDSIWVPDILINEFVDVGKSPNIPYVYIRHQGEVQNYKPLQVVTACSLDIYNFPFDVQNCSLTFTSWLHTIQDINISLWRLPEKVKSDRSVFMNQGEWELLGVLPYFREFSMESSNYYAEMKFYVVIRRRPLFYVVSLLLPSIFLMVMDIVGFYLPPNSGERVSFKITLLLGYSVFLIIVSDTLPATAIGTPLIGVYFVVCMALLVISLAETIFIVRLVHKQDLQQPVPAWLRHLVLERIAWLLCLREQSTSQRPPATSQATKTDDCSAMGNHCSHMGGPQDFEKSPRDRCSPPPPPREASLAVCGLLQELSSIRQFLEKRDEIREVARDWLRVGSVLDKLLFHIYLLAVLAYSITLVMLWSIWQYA

inhibition at 0.1 µM (5-HT3)	inhibition of binding to 5-HT7 receptors (in words) (5-HT7)	inhibition at 0.1 µM (5-HT7)	inhibition at 0.1 µM (human 5-HT2B receptor)	inhibition at 0.1 µM (5-HT2c)	inhibition at 0.1 µM (NE uptake)	% inhibition of control specific at 100 nM conc. (5-HT4C)	inhibition at 0.1 µM (human 5-HT1A receptor)	inhibition of binding to Ne (Norepinephrine) uptake receptors (in words) (NE uptake)	Structure (SMILES)	inhibition of binding to 5-HT1A receptors (in words) (human 5-HT1A receptor)	inhibition of binding to 5-HT2c receptors (in words) (5-HT2c)	further results
4%	inhibits binding	16%	6%	-11%	-9%	0%	16%		Cc1cccc(O[C@@H]2CCNC[C@H]2O)c1C	inhibits binding		
11%		6%	6%	-17%	8%	15%	9%	inhibits binding	Cc1cccc(O[C@@H]2CCNC[C@@H]2O)c1C			inhibition of binding to 5-HT3 receptors (in words) (5-HT3): inhibits binding; inhibition of binding to 5-HT4c receptors (in words) (5-HT4C): inhibits binding
5%	inhibits binding	22%	6%	7%	4%	5%	-8%	inhibits binding	Cc1cccc(O[C@H]2CCNC[C@@H]2O)c1C		inhibits binding	
									Cc1cccc(O[C@H]2CCNC[C@H]2O)c1C.Cc1cccc(O[C@H]2CCNC[C@H]2O)c1C.O=S(=O)(O)O (relative stereo) [ifoxetine, (+/−)-bis-[cis-3-hydroxy-4-(2,3-dimethyl-phenoxy)]-piperidine sulfate]			interaction with opiate receptors (opiate receptors): weak or no interactions; interaction with histamine H1 receptors (histamine H1 receptors): weak or no interactions; interaction with beta-noradrenoceptors (beta-noradrenoceptors): weak or no interactions; activity at 5-HT2 receptors (5-HT2 receptors [1]; 10 μM of the racemate): minimal activity; interaction with 5-HT2 receptors (5-HT2 receptors [1]; in vitro): weak or no interactions; block of 5-HT reuptake in the brain [2]: specifically and selectively blocks; interaction with doparine receptors (doparine receptors): weak or no interactions; interaction with 5-HT2 receptors (5-HT2 receptors [3]): weak or no interactions; interaction with alpha1-noradrenoceptors (alpha1-noradrenoceptors): weak or no interactions; interaction with GABAA receptors (GABAA receptors): weak or no interactions; interaction with muscarinic acetylcholine receptors [4]: weak or no interactions; activity at 5-HT1 receptors (5-HT1 receptors; 10 μM of the racemate): minimal activity; interaction with 5-HT1 receptors (5-HT1 receptors; in vitro): weak or no interactions; interaction with alpha2-noradrenoceptors (alpha2-noradrenoceptors): weak or no interactions; interaction with benzodiazepine receptors (benzodiazepine receptors): weak or no interactions; effect on 5-HT uptake processes in the periphery (blood platelets) [5]: without affecting

Structure (SMILES)	inhibition at 0.1 µM (5-HT3)	inhibition of binding to 5-HT7 receptors (in words) (5-HT7)	inhibition at 0.1 µM (5-HT7)	inhibition at 0.1 µM (human 5-HT2B receptor)	inhibition at 0.1 µM (5-HT2c)	inhibition at 0.1 µM (NE uptake)	% inhibition of control specific at 100 nM conc. (5-HT4C)	inhibition at 0.1 µM (human 5-HT1A receptor)	inhibition of binding to Ne (Norepinephrine) uptake receptors (in words) (NE uptake)	inhibition of binding to 5-HT1A receptors (in words) (human 5-HT1A receptor)	inhibition of binding to 5-HT2c receptors (in words) (5-HT2c)	further results
Cc1cccc(O[C@H]2CCNC[C@H]2O)c1C	6%		1%	48%	4%	3%	8%	39%		effective inhibitor of binding	effective inhibitor of binding	inhibition of binding to 5-HT2B receptors (in words) (human 5-HT2B receptor): effective inhibitor of binding
